Test results reported in patent publication US10869849B2, “Substituted aromatic compounds and pharmaceutical compositions for tissue self-repair and regeneration” (Liminal BioSciences Limited, priority 2014, dated 2020).
Structures can show the parent of a compound that is named as a salt.

How the values were obtained:
[1] = system: Hepatocyte Growth Factor (HGF); experiment: HGF mRNA expression in TGF-β1-treated normal human dermal fibroblasts (real-time PCR); assay type: cell-based; details: compound 500 μM, 24 h; for fold induction at 500 µM: Homo sapiens, NHDF + rhTGF-β1 (10 ng/ml), TGF-β1 control = 1.00, untreated = 7.23, read-out: HGF Relative Quantitation
Description: (§1) Experiments were undertaken to determine the effect of compounds on hepatocyte growth factor expression in vitro normal human dermal fibroblasts (NHDF) from adult donor (Clonetics #CC-2511). NHDF were starved overnight in DMEM/F12+0.5% FBS and treated with or without rhTGF-β1 (10 ng/ml) and compound I (500 μM) for 24 h. RNA was isolated with miRNeasy® kit (QIAGEN®), including on-column DNase digestion step. cDNA synthesis was done (0.5 μg RNA/reaction) using the RT^2 First Strand kit (QIAGEN® #330401). Real-Time PCR was performed as described in the RT^2 Profiler PCR Array handbook on a AB-7900HT real-time cycler. Real-Time PCR data was analyzed using the ΔΔCt method on the RT^2 Profiler PCR Array Data Analysis Web Portal. All Ct values >35 or non amplified were changed to the cut-off value of 35. The housekeeping genes used for normalization are GAPDH and RPLP0. The control group is TGF-β1 treated cells.

[2] = system: Hepatocyte Growth Factor (HGF); experiment: HGF mRNA expression in TGF-β1-treated normal human dermal fibroblasts (real-time PCR); assay type: cell-based; details: NHDF + rhTGF-β1 (10 ng/ml), 24 h, TGF-β1 control = 1.00, untreated = 7.23, read-out: HGF Relative Quantitation; for fold induction at 250 µM: compound 250 μM; for fold induction at 100 µM: compound 100 μM
[3] = system: LOX, MMP13, PLAU (uPA), serpin E1, TIMP3 and ILK; experiment: Expression of regeneration markers in TGF-β1-injured NHDF (FIG. 2); assay type: cell-based, human; details: rhTGF-β1 (10 ng/ml), compound 500 μM, 24 h
Description: as §1, with “cells. An experiment was undertaken to determine the effect of compounds on the expression of regeneration markers. This experiment was performed with NHDF (Normal Human Dermal Fibroblasts) and human epithelial cells (renal tubular epithelial cells, HK-2) involved in tissue regeneration after single, multiple or constant injury. Injury was simulated by incubation of the cells with TGF-β1. […]” for “cells.”

Serpin A1 (AAT) = experiment: AAT mRNA expression, qPCR-panel on NHDF (FIG. 4); assay type: cell-based, human; details: injured NHDF cells
Description: as §1, with “cells. As mentioned above, AAT can induce nerve regeneration. […] Compound I is representative of the compounds of formula I disclosed herein. Therefore, the compounds of formula I disclosed herein may increase regeneration of nerves via the production of endogenous AAT at the site of injury.” for “cells.”

injured kidney = experiment: Organ function (GFR) of an injured kidney (FIG. 5); assay type: in vivo
[4] = system: LOX, MMP1, MMP2, MMP9, MMP13, TIMP3 and PLAT (tPA); experiment: Expression of regeneration markers in TGF-β1-injured HK-2 epithelial cells (FIG. 3); assay type: cell-based, human; details: HK-2 cells, rhTGF-β1 (10 ng/ml), compound 500 μM, 24 h

## CCC/C=C/c1cccc(CC(=O)O)c1 [Compound IV, Sodium Salt of E-(3-pent-1-enyl-phenyl)acetic acid]
[1]
  fold induction at 500 µM: 3.8

## CCCCCc1cc(CCCCC)cc(CC(=O)[O-])c1.[Na+] [Compound XIV, Sodium 2-[3,5-Dipentylphenyl]acetate]
other
  melting point: 225 to 230 °C

## CCCCCc1cc(F)cc(CC(=O)O)c1 [Compound X, Sodium Salt of 2-(3-fluoro-5-pentylphenyl)acetic acid]
[2]
  fold induction at 250 µM: 3.06

## CCCCCCc1cccc(CC(=O)O)c1 [Compound VI, Sodium Salt of 2-(3-Hexylphenyl)acetic acid]
[2]
  fold induction at 100 µM: 2.77

## CCCCCc1cc(CC(=O)O)cc(CCCCC)c1O [Compound XVIII, Sodium Salt of 2-(4-Hydroxy-3,5-dipentylphenyl)acetic acid]
[2]; compound 25 μM
  fold induction at 25 µM: 1.4

## CCCCCc1cccc(CC(=O)[O-])c1.[Na+] [Compound I, Sodium Salt of (3-pentylphenyl)acetic acid]
[3]
  expression level of regeneration markers LOX, MMP13, PLAU (uPA), serpin E1, TIMP3 and ILK: all expressed at a normal level
[1]
  fold induction at 500 µM: 4.23
[1]; NHDF, rhTGF-β1 (10 ng/ml)
  expression of HGF (FIG. 1), result in words: increases the expression of HGF
Serpin A1 (AAT)
  AAT mRNA expression: increase AAT mRNA expression
Injured kidney
  organ function (GFR): increase in organ function (GFR)
[4]
  expression level of regeneration markers LOX, MMP1, MMP2, MMP9, MMP13, TIMP3 and PLAT (tPA): all expressed at a level close to the normal level observed in healthy cells

## CCCCCc1cc(CCCCC)cc(C(C)(C)C(=O)O)c1 [Compound XXXIII, Sodium Salt of 2-(3,5-Dipentylphenyl)-2-methylpropanoic Acid]
[2]; compound 6 μM
  fold induction at 6 µM: 1.54

## CCCC/C=C/c1cccc(CC(=O)O)c1 [Compound V, Sodium Salt of 2-(3-(Hex-1-enyl]phenyl)acetic acid]
[2]
  fold induction at 100 µM: 2.73

## CCCCCc1cc(O)cc(CC(=O)O)c1 [Compound VII, Sodium Salt of 3-hydroxy-5-pentylphenylacetic acid]
[1]
  fold induction at 500 µM: 2.66

## CCCCCc1cc(CC(=O)O)ccc1O [Compound VIII, Sodium Salt of 2-(4-Hydroxy-3-pentylphenyl)acetic acid]
[1]
  fold induction at 500 µM: 1.44

## CCCCCc1cc(CCCCC)c(F)c(CC(=O)O)c1 [Compound XXXII, Sodium Salt of 2-(2-Fluoro-3,5-dipentylphenyl)acetic Acid]
[2]; compound 10 μM
  fold induction at 10 µM: 1.73

## CCCCCc1cccc(CC(=O)O)c1F [Compound XI, Sodium Salt of 2-(2-Fluoro-3-pentylphenyl)acetic acid]
[2]
  fold induction at 250 µM: 3.38

## CCCCCc1cc(CC(=O)O)ccc1F [Compound XII, Sodium Salt of 2-(4-Fluoro-3-pentylphenyl)acetic acid]
[1]
  fold induction at 500 µM: 2.47

## CCCCCc1cccc(CCC(=O)O)c1 [Compound II, Sodium Salt of 3-(3-pentylphenyl)propionic acid]
[2]
  fold induction at 250 µM: 1.37

## CCCCCc1cccc(C(F)C(=O)O)c1 (racemic) [Compound XIII, Sodium Salt of (RS)-2-Fluoro-2-(3-pentylphenyl)acetic acid]
[1]
  fold induction at 500 µM: 1.71

## CCCCc1cccc(CCC(=O)O)c1 [Compound III, Sodium Salt of 3-(3-butylphenyl)propionic acid]
[1]
  fold induction at 500 µM: 2.41
